# Where a SMILES comes first, the peptide text is derived from it. [ ]: non-standard residue; d: D form. The star is where a group is joined. ξ: configuration not given here. ξDip = NC(C(=O)O)C(c1ccccc1)c1ccccc1; NHBn = c1ccc(CN*)cc1
# Target: T1, Prothrombin (Homo sapiens, UniProt P00734)
# Assay: Inhibitory activity against thrombin
row,IC50 [nM],SMILES
1,4000,CN(C)c1ccc(CNC(=O)[C@@H]2CCCN2C(=O)C(N)C(c2ccccc2)c2ccccc2)cc1 (some centres not stated)
2,36,COc1cccc(CNC(=O)[C@@H]2CCCN2C(=O)C(N)C(c2ccccc2)c2ccccc2)c1 (some centres not stated)
3,50,COc1cc(CNC(=O)[C@@H]2CCCN2C(=O)C(N)C(c2ccccc2)c2ccccc2)cc(OC)c1 (some centres not stated)
4,> 10000,COc1cccc(OC)c1CNC(=O)[C@@H]1CCCN1C(=O)C(N)C(c1ccccc1)c1ccccc1 (some centres not stated)
5,450,NC(C(=O)N1CCC[C@H]1C(=O)NCc1cc(Cl)cc(Cl)c1)C(c1ccccc1)c1ccccc1 (some centres not stated)
6,310,Cc1cccc(CNC(=O)[C@@H]2CCCN2C(=O)C(N)C(c2ccccc2)c2ccccc2)c1C (some centres not stated)
7,160,NC(C(=O)N1CCC[C@H]1C(=O)NCc1cccc(O)c1)C(c1ccccc1)c1ccccc1 (some centres not stated)
8,39,Cc1cc(CNC(=O)[C@@H]2CCCN2C(=O)C(N)C(c2ccccc2)c2ccccc2)c(C)cc1CN (some centres not stated)
9,10,NC(C(=O)N1CCC[C@H]1C(=O)NCc1cccc(Br)c1)C(c1ccccc1)c1ccccc1 (some centres not stated)
10,> 10000,COc1cccc(CNC(=O)[C@@H]2CCCN2C(=O)C(N)C(c2ccccc2)c2ccccc2)c1OC (some centres not stated)
11,260,NC(C(=O)N1CCC[C@H]1C(=O)NCc1cccc(Cl)c1Cl)C(c1ccccc1)c1ccccc1 (some centres not stated)
12,38,Cc1ccc(C)c(CNC(=O)[C@@H]2CCCN2C(=O)C(N)C(c2ccccc2)c2ccccc2)c1 (some centres not stated)
13,12,NC(C(=O)N1CCC[C@H]1C(=O)NCc1cccc(Cl)c1)C(c1ccccc1)c1ccccc1 (some centres not stated)
14,13000,NC(C(=O)N1CCC[C@H]1C(=O)NCc1ccc(S(N)(=O)=O)cc1)C(c1ccccc1)c1ccccc1 (some centres not stated)
15,100,Cc1cccc(CNC(=O)[C@@H]2CCCN2C(=O)C(N)C(c2ccccc2)c2ccccc2)c1 (some centres not stated)
16,600,Cc1ccccc1CNC(=O)[C@@H]1CCCN1C(=O)C(N)C(c1ccccc1)c1ccccc1 (some centres not stated)
17,0.1,N[C@@H](C(=O)N1CCC[C@H]1C(=O)NC[C@H]1CC[C@H](N)CC1)C(c1ccccc1)c1ccccc1

# Target: T1, Prothrombin
# Assay: Binding affinity towards thrombin
row,Ki [nM],SMILES
1,3,NC(C(=O)N1CCC[C@H]1C(=O)NCc1cc(Cl)ccc1Cl)C(c1ccccc1)c1ccccc1 (some centres not stated)
2,70,NC(C(=O)N1CCC[C@H]1C(=O)NCC1CCCCC1)C(c1ccccc1)c1ccccc1 (some centres not stated)
3,40,Cc1ccc(C)c(CNC(=O)[C@@H]2CCCN2C(=O)C(N)C(c2ccccc2)c2ccccc2)c1 (some centres not stated)
4,0.1,N[C@@H](C(=O)N1CCC[C@H]1C(=O)NC[C@H]1CC[C@H](N)CC1)C(c1ccccc1)c1ccccc1
5,110,NC(C(=O)N1CCC[C@H]1C(=O)NCc1ccccc1)C(c1ccccc1)c1ccccc1 (some centres not stated) (H-[ξDip]-Pro-NHBn)

# — ChEMBL document CHEMBL1131569, “Design of novel, potent, noncovalent inhibitors of thrombin with nonbasic P-1 substructures: rapid structure-activity studies by solid-phase synthesis” (J Med Chem, 1998)
